# Measured values published in patent publication US20240262814A1, “MODULATORS OF TREX1” (Constellation Pharmaceuticals, Inc., priority 2021, published 2024).
# Experiments:
# human TREX2 = target: T1, human TREX2 (Homo sapiens, UniProt Q9BQ50); assay: hTREX2 Biochemical Assay (selectivity hTREX1 vs hTREX2); conditions: biochemical selectivity for hTREX1 vs hTREX2
# T1 construct: human TREX2 (residues M44-A279, expressed in E. coli); made in house; host or cells: E. coli
# T1 sequence (Q9BQ50 44-279 isoform Q9BQ50-1): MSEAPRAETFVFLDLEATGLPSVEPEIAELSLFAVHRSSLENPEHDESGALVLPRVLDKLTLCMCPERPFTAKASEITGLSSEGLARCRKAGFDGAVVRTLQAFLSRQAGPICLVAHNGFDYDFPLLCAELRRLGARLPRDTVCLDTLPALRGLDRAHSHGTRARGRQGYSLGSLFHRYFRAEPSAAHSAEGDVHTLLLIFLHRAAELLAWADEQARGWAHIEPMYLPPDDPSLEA
# Method in brief: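 His-Tev-tagged human TREX2 (M44-A279, E. coli-expressed) preincubated with compound (10-point dose-response) for 4 h at 25 °C in Tris pH 7.4 buffer with 5 mM MgCl2. Reaction then run with 60 nM TEX615/quencher dsDNA and 50 pM enzyme (1% DMSO) for 18 h at 25 °C and EDTA-quenched. Fluorescence read at 615 nm (ex 570 nm); IC50 by four-parameter fit against pre-quenched and no-inhibitor controls.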
# human TREX1 = target: T2, human TREX1 (Homo sapiens, UniProt Q9NSU2); assay: hTREX1 Biochemical Assay (fluorescence, dsDNA substrate degradation); conditions: full length human TREX1, 4 h pre-incubation, 18 h reaction at 25° C.
# T2 construct: N-terminally His-Tev tagged full length human TREX1; made in house; host or cells: E. coli
# T2 sequence (Q9NSU2 1-314): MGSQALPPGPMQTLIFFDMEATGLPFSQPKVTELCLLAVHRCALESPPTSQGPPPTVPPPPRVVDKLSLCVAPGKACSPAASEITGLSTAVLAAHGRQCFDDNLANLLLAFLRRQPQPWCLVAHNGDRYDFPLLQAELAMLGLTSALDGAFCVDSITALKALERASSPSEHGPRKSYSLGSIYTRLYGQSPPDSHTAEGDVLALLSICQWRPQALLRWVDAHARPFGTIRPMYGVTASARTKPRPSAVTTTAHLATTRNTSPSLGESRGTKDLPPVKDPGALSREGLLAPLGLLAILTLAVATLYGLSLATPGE
# Method in brief: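 His-Tev-tagged full-length E. coli-expressed enzyme (4 pM final) preincubated with compound 4 h at 25° C., then 60 nM quenched-fluorophore dsDNA added in Tris pH 7.4, 5 mM MgCl2, 1% DMSO. After 18 h at 25° C., EDTA-quenched; fluorescence 615 nm (ex 570 nm); IC50 from four-parameter fit versus EDTA and no-inhibitor controls.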
# mouse TREX1 = target: T3, mouse TREX1 (Mus musculus, UniProt Q91XB0); assay: mTREX1 Biochemical Assay (fluorescence, dsDNA substrate degradation); conditions: full length mouse TREX1, 4 h pre-incubation, 18 h reaction at 25° C.
# T3 construct: N-terminally His-Tev tagged full length mouse TREX1; made in house; host or cells: E. coli
# T3 sequence (Q91XB0 1-314): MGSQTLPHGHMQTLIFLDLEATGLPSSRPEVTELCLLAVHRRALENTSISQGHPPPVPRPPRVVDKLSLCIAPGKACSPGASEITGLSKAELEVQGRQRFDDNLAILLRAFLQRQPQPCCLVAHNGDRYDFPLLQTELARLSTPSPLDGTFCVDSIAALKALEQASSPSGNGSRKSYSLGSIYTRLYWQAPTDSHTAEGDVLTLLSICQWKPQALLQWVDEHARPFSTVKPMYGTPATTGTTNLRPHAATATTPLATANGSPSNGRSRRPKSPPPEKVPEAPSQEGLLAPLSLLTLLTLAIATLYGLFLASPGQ
# Method in brief: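 Full-length His-Tev mouse TREX1 (E. coli) was preincubated with compound 4 h at 25 °C, then run 18 h at 25 °C. Finals were 6 pM enzyme, 60 nM TEX615/quencher dsDNA, 1% DMSO, pH 7.4 Tris with 5 mM MgCl2. After EDTA quench, fluorescence was read at 615 nm; IC50 by four-parameter fit against EDTA and no-inhibitor controls.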
SMILES,hTREX1 vs hTREX2 selectivity (human TREX2),IC50 (human TREX1) [nM],IC50 (mouse TREX1) [nM]
"C[C@H](c1nc(C(=O)Nc2cnoc2)c(O)c(=O)n1C)[C@H](c1ccccc1)c1ccc(C(=O)N(C)C)cc1C#N (single isomer, unassigned) [Example 16 Isomer 3, 2-(1-(2-cyano-4-(dimethylcarbamoyl)phenyl)-1-phenylpropan-2-yl)-5-hydroxy-N-(isoxazol-4-yl)-1-methyl-6-oxo-1,6-dihydropyrimidine-4-carboxamide]",A (A = <25 fold selective for hTREX1),> 100,> 10
"C[C@H](c1nc(C(=O)Nc2cnoc2)c(O)c(=O)n1C)[C@H](c1ccccc1)c1ccc(C(=O)N(C)C)cc1C#N (single isomer, unassigned) [Example 16 Isomer 4, 2-(1-(2-cyano-4-(dimethylcarbamoyl)phenyl)-1-phenylpropan-2-yl)-5-hydroxy-N-(isoxazol-4-yl)-1-methyl-6-oxo-1,6-dihydropyrimidine-4-carboxamide]",B (B = 25 to 50 fold selective for hTREX1),< 1,< 1
"CC(c1nc(C(=O)Nc2cnoc2)c(O)c(=O)n1C)C(c1ccccc1)c1cc(C(=O)N(C)C)ccc1C#N (single isomer, unassigned) [Example 17 Isomer 1]",A (A = <25 fold selective for hTREX1),10 to 100,> 10
"Cn1c([C@@H](CF)C(c2ccccc2)c2ccccc2)nc(C(=O)Nc2cnoc2)c(O)c1=O (single isomer, unassigned) [Example 18 Isomer 1, 2-(3-fluoro-1,1-diphenylpropan-2-yl)-5-hydroxy-N-(isoxazol-4-yl)-1-methyl-6-oxo-1,6-dihydropyrimidine-4-carboxamide]",A (A = <25 fold selective for hTREX1),10 to 100,> 10
"Cn1c([C@H](C(c2ccccc2)c2ccccc2)C(F)(F)F)nc(C(=O)Nc2cnoc2)c(O)c1=O (single isomer, unassigned) [Example 20 Isomer 2, 5-Hydroxy-N-(isoxazol-4-yl)-1-methyl-6-oxo-2-(1,1,1-trifluoro-3,3-diphenylpropan-2-yl)-1,6-dihydropyrimidine-4-carboxamide]",A (A = <25 fold selective for hTREX1),> 100,> 10
"Cn1c([C@@H](C(c2ccccc2C#N)c2ccccc2C#N)C(F)(F)F)nc(C(=O)Nc2cnoc2)c(O)c1=O (single isomer, unassigned) [Example 21 Isomer 2, 2-(3,3-bis(2-cyanophenyl)-1,1,1-trifluoropropan-2-yl)-5-hydroxy-N-(isoxazol-4-yl)-1-methyl-6-oxo-1,6-dihydropyrimidine-4-carboxamide]",C (C = >50 fold selective for hTREX1),10 to 100,> 10
"Cn1c(C(F)(F)C(c2ccccc2)c2ccccc2)nc(C(=O)Nc2cnoc2)c(O)c1=O [Example 19, 2-(1,1-difluoro-2,2-diphenylethyl)-5-hydroxy-N-(isoxazol-4-yl)-1-methyl-6-oxo-1,6-dihydropyrimidine-4-carboxamide]",B (B = 25 to 50 fold selective for hTREX1),10 to 100,> 10
"Cn1c(CC(c2ccccc2)c2ccccc2)nc(C(=O)Nc2cnoc2)c(O)c1=O [Example A, 2-(2,2-diphenylethyl)-5-hydroxy-N-(isoxazol-4-yl)-1-methyl-6-oxo-1,6-dihydropyrimidine-4-carboxamide]",A (A = <25 fold selective for hTREX1),> 100,> 10
"Cn1c(C(C)(C)C(c2ccccc2)c2ccccc2)nc(C(=O)Nc2cnoc2)c(O)c1=O [Example B, 5-hydroxy-N-(isoxazol-4-yl)-1-methyl-2-(2-methyl-1,1-diphenylpropan-2-yl)-6-oxo-1,6-dihydropyrimidine-4-carboxamide]",A (A = <25 fold selective for hTREX1),> 100,> 10
